Experimental data published in patent US8088422B2, “Purified pyrroloquinoline quinone fortified food” (Shanghai Medical Life Science Research Center, Ltd., Co., priority 2008, dated 2012).
In brackets after ≈: the same amount, converted by molar mass.

Key:
Top10 E. coli = experiment: OD600 measurement of bacterial growth in LB media with PQQ, Top10 E. coli; assay type: cell-based; conditions: 37 degree C
Description: (§1) In one experiment, Top 10 E. coli and Ampicillin resistant (AmpR) E. coli are selected as bacterial samples. These bacterial samples are cultured separately in LB media in a number of tubes with various purified PQQ concentrations. LB media is prepared as following: Ten gram Bacto-tryptone, 5 g yeast extract and 10 g NaCl are added to 800 ml distilled H2O. The pH of the solution is adjusted to 7.5 with NaOH, and the final volume is adjusted to 1 L with distilled H2O. The LB media is autoclaved and filtered to be sterilized. The PQQ concentration range is prepared between 0 to 100 mg/Liter of LB media in the number of the tubes. The bacterial samples are inoculated into the tubes to the amount of 1×10^5/tube, incubated in 37 degree C. on shaking bench for designated time according to the following experiment designs. It is known that Ampicillin has no effect to the growth of Ampicillin resistant E. coli but can inhibit other bacteria growth. Therefore, the data from the Ampicillin experiment are focused on AmpR E. coli growth. While in the case of Top10 E. coli, other types of bacteria may grow in the culture as well.
(§2) Table 1 and FIG. 1 show OD600 value of samples from Top10 E. coli and Ampicillin resistant E. coli cultured at 6, 8, and 9.5 hours. OD600 is a measurement of the optical density at 600 nm wavelength light of a liquid media. The optical density is related to the amount of particle scattering of light. In this case, a high optical density indicates a large number of bacteria in the cultural sample, and OD600 datas are used in this invention disclosure as indication of numbers of bacteria in the liquid media, which is a standard method to monitor microorganism growth. The OD600 of cultured microorganism in liquid media is measured by photometer, using blank media as blank reference. To convert OD600 to the number of microorganism such as E. coli in the culture media, the converting formula is 1 OD=3.8×10^8. OD600 is a well known technique of monitoring bacterial growth to those of skilled in the art and so is not discussed further here.

[1] = system: Ampicillin resistant (AmpR) E. coli; experiment: OD600 measurement of bacterial growth in LB media with PQQ, Ampicillin resistant E. coli; assay type: cell-based; conditions: for OD600: AmpR, LB media, 37 degree C
Description: as §1, §2

Isoelectric point of PQQ = assay type: physicochemical
DNA = conditions: 10 μM PQQ (3.3 mg/L), dependent on presence of NADH and Cu (II); cited from earlier work
[2] = system: bacteria in non-pasteurized cow milk; experiment: OD600 of PQQ fortified non-pasteurized cow milk (FIG. 2); assay type: cell-based; conditions: PQQ 0, 0.1, 1, 10 mg/L, after 6 and 9 hour mixing at 37 degree C, then LB culture 24 hours
Description: In one embodiment of the present invention, the inhibition effect of purified PQQ to the growth of bacterial is utilized to preserve food products. […] The samples were prepared with purified PQQ concentration level of 0, 0.1, 1, and 10 mg/L. Next, the samples were shaken at 37 degree C. for 3, 6, and 9 hours, and then saved in a refrigerator under 4 degree C. On the next day, liquid culture media LB was added into the samples, followed by the samples cultured in shake flask for the next 24 hours and ready for OD600 test.
FIG. 2 presents the OD600 value as a function of purified PQQ concentration measured from the samples shake flask for 3, 6, and 9 hours.

[3] = Solubility of PQQ in water solution; assay type: physicochemical; conditions: 20 °C, aqueous buffer; 20-25 degree C., pH 7.0 water solution

O=C(O)c1cc(C(=O)O)c2c(n1)C(=O)C(=O)c1cc(C(=O)O)[nH]c1-2 [PQQ, Pyrroloquinoline quinone] showed an OD600 (Top10 E. coli; PQQ 0.1 mg/L, 6 Hours) of 0.303, an OD600 (Top10 E. coli; PQQ 0.1 mg/L, 8 Hours) of 0.416 and an OD600 (Top10 E. coli; PQQ 0.1 mg/L, 9.5 Hours) of 0.451. It also gave an OD600 (Top10 E. coli; PQQ 1 mg/L, 6 Hours) of 0.293, an OD600 (Top10 E. coli; PQQ 1 mg/L, 8 Hours) of 0.445 and an OD600 (Top10 E. coli; PQQ 1 mg/L, 9.5 Hours) of 0.452. It also gave an OD600 (Top10 E. coli; PQQ 25 mg/L, 6 Hours) of 0.251, an OD600 (Top10 E. coli; PQQ 25 mg/L, 8 Hours) of 0.433 and an OD600 (Top10 E. coli; PQQ 25 mg/L, 9.5 Hours) of 0.472. For the same compound, the OD600 (Top10 E. coli; PQQ 50 mg/L, 6 Hours) was 0.208, the OD600 (Top10 E. coli; PQQ 50 mg/L, 8 Hours) was 0.413 and the OD600 (Top10 E. coli; PQQ 50 mg/L, 9.5 Hours) was 0.457. It also gave an OD600 (Top10 E. coli; PQQ 75 mg/L, 6 Hours) of 0.165, an OD600 (Top10 E. coli; PQQ 75 mg/L, 8 Hours) of 0.386 and an OD600 (Top10 E. coli; PQQ 75 mg/L, 9.5 Hours) of 0.446. It also gave an OD600 (Top10 E. coli; PQQ 100 mg/L, 6 Hours) of 0.163, an OD600 (Top10 E. coli; PQQ 100 mg/L, 8 Hours) of 0.378 and an OD600 (Top10 E. coli; PQQ 100 mg/L, 9.5 Hours) of 0.431. For the same compound, the “number of E. coli in AmpR sample (general trend, FIG. 1 and table 1)” value ([1]; PQQ 0 to 100 mg/Liter of LB media, 6, 8, 9.5 hours) was “decreases as the concentration of purified PQQ increases”, the OD600 ([1]; PQQ 0.1 mg/L, 6 Hours) was 0.143 and the OD600 ([1]; PQQ 0.1 mg/L, 8 Hours) was 0.331. It also gave an OD600 ([1]; PQQ 0.1 mg/L, 9.5 Hours) of 0.401, an OD600 ([1]; PQQ 1 mg/L, 6 Hours) of 0.145 and an OD600 ([1]; PQQ 1 mg/L, 8 Hours) of 0.335. The OD600 ([1]; PQQ 1 mg/L, 9.5 Hours) was 0.408, the OD600 ([1]; PQQ 25 mg/L, 6 Hours) was 0.087 and the OD600 ([1]; PQQ 25 mg/L, 8 Hours) was 0.268. It also gave an OD600 ([1]; PQQ 25 mg/L, 9.5 Hours) of 0.356, an OD600 ([1]; PQQ 50 mg/L, 6 Hours) of 0.052 and an OD600 ([1]; PQQ 50 mg/L, 8 Hours) of 0.169. It also gave an OD600 ([1]; PQQ 50 mg/L, 9.5 Hours) of 0.298, an OD600 ([1]; PQQ 75 mg/L, 6 Hours) of 0.04 and an OD600 ([1]; PQQ 75 mg/L, 8 Hours) of 0.122. The OD600 ([1]; PQQ 75 mg/L, 9.5 Hours) was 0.239, the OD600 ([1]; PQQ 100 mg/L, 6 Hours) was 0.03 and the OD600 ([1]; PQQ 100 mg/L, 8 Hours) was 0.088. For the same compound, the OD600 ([1]; PQQ 100 mg/L, 9.5 Hours) was 0.192, the isoelectric point (Isoelectric point of PQQ) was 2.75 pH and the DNA cleavage (DNA) was “induce DNA cleavage at thymine and cytosine residue sites”. For the same compound, the “amount of bacteria (OD600, FIG. 2)” value [2] was “the amount of bacteria decreases as the purified PQQ concentration increases” and the solubility [3] was 1000 to 2000 µg/mL (≈ 3.03 to 6.06 mM).
